# Test results published in paper PMC2553845, “A Specificity Map for the PDZ Domain Family” (PLoS Biology, 2008).
# Entries after “also recorded” stand apart in the source; their conditions may differ. Where two headings read alike, the source gives them in different places. Where no end group is shown, it is not given here.
# What was measured:
# SCRIB PDZ domains = assay: Competition ELISA, binding to the SCRIB PDZ domains; design: species or system Human
# Procedure: (§1) Peptides were synthesized with acetylated C termini. The binding affinities of peptides for PDZ domains were determined as 50% inhibition concentration (IC50) values using competition ELISAs, as described. The IC50 value was defined as the concentration of peptide that blocked 50% of PDZ domain binding to immobilized peptide.
# SCRIB-2 = target: T1, SCRIB-2 (Homo sapiens, UniProt Q14160); assay: Competition ELISA, peptide affinity for PDZ domain; assay type: binding
# T1 construct: synthetic peptide that targets SCRIB PDZ domains 1, 2, and 3; GST; made in house; host or cells: E. coli
# T1 sequence (Q14160 862-950 limits assumed): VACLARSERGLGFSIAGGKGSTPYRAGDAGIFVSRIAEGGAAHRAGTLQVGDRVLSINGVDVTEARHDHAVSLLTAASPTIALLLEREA
# Procedure: as §1
# SCRIB-3 = target: T2, SCRIB-3 (Homo sapiens, UniProt Q14160); assay: Competition ELISA, peptide affinity for PDZ domain; assay type: binding
# T2 construct: synthetic peptide that targets SCRIB PDZ domains 1, 2, and 3; GST; made in house; host or cells: E. coli
# T2 sequence (Q14160 1004-1093 limits assumed): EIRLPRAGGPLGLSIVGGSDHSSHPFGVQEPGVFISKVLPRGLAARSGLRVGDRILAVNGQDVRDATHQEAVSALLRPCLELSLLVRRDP
# Procedure: as §1
# SCRIB-1 = target: T3, SCRIB-1 (Homo sapiens, UniProt Q14160); assay: Competition ELISA, peptide affinity for PDZ domain; assay type: binding
# T3 construct: synthetic peptide that targets SCRIB PDZ domains 1, 2, and 3; GST; made in house; host or cells: E. coli
# Procedure: as §1
# [1] = target: T4, first PDZ domain of ZO-1 (TJP1–1) (Homo sapiens, UniProt Q07157); assay: biochemical; assay type: binding
# T4 construct: the first PDZ domain of ZO-1 (TJP1–1); GST; made in house; host or cells: E. coli
# T4 sequence (Q07157 23-110 limits assumed): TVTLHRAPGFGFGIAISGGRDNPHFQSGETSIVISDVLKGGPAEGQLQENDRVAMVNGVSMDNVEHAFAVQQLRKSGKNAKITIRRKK
# [2] = tested on: Naive Crtam−/− CD4 T cells; assay: T cell proliferation, [3H]-thymidine incorporation; assay type: cell-based; settings: Crtam−/− CD4 T cells electroporated with Crtam plasmid; peptide 1.0 μM; [3H]-thymidine added after 42 h, harvested 8 h later; representative of three independent experiments
# Procedure: (§2) Naïve Crtam^−/− CD4 T cells were purified and activated with plate-bound anti-CD3 and anti-CD28, as described. On day 4, T cells were electroporated with 4 μg of pIRES_GFP or pIRES_GFP/Crtam plasmid DNA by Amaxa Nucleofector (program X-01). Synthetic peptides (1.0 μM) were added into the cultures, and after 6 h, transfected cells were restimulated at 1 × 10^6 cells/ml with plate-bound antibodies and were fixed 14 h later for Talin staining. After 42 h, [^3H]-thymidine (1 μCi/well) was added, and the plates were harvested 8 h later.
# [3] = tested on: Naive Crtam−/− CD4 T cells; assay: T cell polarization, Talin staining; assay type: cell-based; settings: Crtam−/− CD4 T cells electroporated with Crtam plasmid; peptide 1.0 μM; restimulated after 6 h, fixed 14 h later
# Procedure: as §2
# T3 sequence (Q14160 728-815 limits assumed): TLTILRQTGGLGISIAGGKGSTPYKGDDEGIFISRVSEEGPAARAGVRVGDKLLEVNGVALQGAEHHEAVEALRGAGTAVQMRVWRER
substance,measurement,setting,value
Ac-HMARRVESEV [compound 9],Interaction with the SCRIB PDZ domains (in words),SCRIB PDZ domains,interact with the SCRIB PDZ domains
Ac-KMARAARSKV-OH [peptide 11],Interaction with the SCRIB PDZ domains (in words),SCRIB PDZ domains,does not
same,IC50,SCRIB-2,> 500 µM
same,IC50,SCRIB-3,> 500 µM
same,IC50,SCRIB-1,> 500 µM
same,IC50,[1],> 500 µM
Ac-KMERTIESEV [compound 10],Interaction with the SCRIB PDZ domains (in words),SCRIB PDZ domains,interact with the SCRIB PDZ domains
Ac-PPRRHRETYV (N-terminus assumed) [peptide 12],Interaction with the SCRIB PDZ domains (in words),SCRIB PDZ domains,bound to both
same,Interaction with the ZO-1 PDZ domain (TJP1–1) (in words),[1],bound to both
Ac-RQIKIWFQNRRMKWKKRSWFEAWA (N-terminus assumed) [peptide 15],Interaction with the SCRIB PDZ domains (in words),"SCRIB PDZ domains; in vitro, synthesized peptides",nonbinding
same,Effect on T cell proliferation ([3H]-thymidine incorporation),[2],has no effect
same,Effect on late phase of T cell polarization (Talin staining),[3],has no effect
Ac-RQIKIWFQNRRMKWKKRSWFETWV (N-terminus assumed) [peptide 14],Interaction with the SCRIB PDZ domains (in words),"SCRIB PDZ domains; in vitro, synthesized peptides",binds to the SCRIB PDZ domains with high affinity
same,Effect on T cell proliferation ([3H]-thymidine incorporation),[2],triggers T cell proliferation; also recorded: reverses the hypoproliferative effects of Crtam
same,Effect on late phase of T cell polarization (Talin staining),[3],causes loss of late-phase T cell polarization
Ac-RRRKRKRTYL (N-terminus assumed) [peptide 13],Interaction with the SCRIB PDZ domains (in words),SCRIB PDZ domains,interacted only with this domain
same,Interaction with the ZO-1 PDZ domain (TJP1–1) (in words),[1],interacted only with this domain
